According to ChEMBL document CHEMBL2311284, “A novel series of N-(azetidin-3-yl)-2-(heteroarylamino)acetamide CCR2 antagonists” (Bioorg Med Chem Lett, 2013):

Experiments:
[1] = AUClast in rat at 2 mg/kg, iv and 10 mg/kg, po; conditions: plasma
[2] = Volume of distribution at steady state in rat at 2 mg/kg, iv and 10 mg/kg, po; conditions: in vivo, read-out: Vdss
[3] = Clearance in rat at 2 mg/kg, iv and 10 mg/kg, po; conditions: in vivo
[4] = Oral bioavailability in rat at 10 mg/kg; type: ADME, organism-based; conditions: in vivo

| AUC(0-t) [1] | Vd [2] | clearance [3] | bioavailability [4] | Compound |
| --- | --- | --- | --- | --- |
| 10.6 ng·h/mL | 8.5 L/kg | 89 mL/min/kg | 0.3% | O=C(CNc1ncnc2ccc(C(F)(F)F)cc12)NC1CN([C@H]2CC[C@@](O)(c3cncs3)CC2)C1 |
| 6 ng·h/mL | 13 L/kg | 148 mL/min/kg | 0.5% | N#Cc1cc(NCC(=O)NC2CN([C@H]3CC[C@@](O)(c4cncs4)CC3)C2)c2cc(C(F)(F)F)ccc2n1 |
